Measured values from the supplement of paper PMC10307832.

Assays:
Experiment in all cases: relative viability (nuclei count vs DMSO), 5 days (fraction); higher = more cells survive
Doxorubicin + Crizotinib = compound: COc1cccc2c1C(=O)c1c(O)c3c(c(O)c1C2=O)C[C@@](O)(C(=O)CO)C[C@@H]3O[C@H]1C[C@H](N)[C@H](O)[C@H](C)O1 [Doxorubicin] + C[C@@H](Oc1cc(-c2cnn(C3CCNCC3)c2)cnc1N)c1c(Cl)ccc(F)c1Cl [Crizotinib] (partner 1 µM)
How it was run: (§1)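 Relative viability divides the nuclei count in treated wells by that in vehicle wells. Lung cancer cell lines were seeded in 1536-well plates, dosed by pin tool the next day, and fixed and stained after 5 days in one step with final 0.05% Triton X-100, 1% formaldehyde and 1 ug/ml Hoechst. Dosing was a single drug or a fixed anchor-drug dose plus five library-drug doses (not always all listed) in √10 steps, and values are medians of duplicate plates imaged at 4×.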

Doxorubicin + OSI-027 = compound: COc1cccc2c1C(=O)c1c(O)c3c(c(O)c1C2=O)C[C@@](O)(C(=O)CO)C[C@@H]3O[C@H]1C[C@H](N)[C@H](O)[C@H](C)O1 [Doxorubicin] + COc1cccc2cc(-c3nc([C@H]4CC[C@H](C(=O)O)CC4)n4ncnc(N)c34)[nH]c12 [OSI-027] (partner 0.5 µM)
How it was run: as §1

Doxorubicin + Trametinib = compound: COc1cccc2c1C(=O)c1c(O)c3c(c(O)c1C2=O)C[C@@](O)(C(=O)CO)C[C@@H]3O[C@H]1C[C@H](N)[C@H](O)[C@H](C)O1 [Doxorubicin] + CC(=O)Nc1cccc(-n2c(=O)n(C3CC3)c(=O)c3c(Nc4ccc(I)cc4F)n(C)c(=O)c(C)c32)c1 [Trametinib] (partner 0.02 µM)
How it was run: as §1

BAY61-3606 + Olaparib = compound: COC1=C(C=C(C=C1)C2=CC3=NC=CN3C(=N2)NC4=C(C=CC=N4)C(=O)N)OC [BAY61-3606] + O=C(c1cc(Cc2n[nH]c(=O)c3ccccc23)ccc1F)N1CCN(C(=O)C2CC2)CC1 [Olaparib] (partner 8 µM)
How it was run: as §1

Cell Line	relative viability (Doxorubicin + Crizotinib; first compound 0.001 µM)	relative viability (Doxorubicin + Crizotinib; first compound 0.003162 µM)	relative viability (Doxorubicin + Crizotinib; first compound 0.01 µM)	relative viability (Doxorubicin + Crizotinib; first compound 0.03162 µM)	relative viability (Doxorubicin + Crizotinib; first compound 0.1 µM)	relative viability (Doxorubicin + OSI-027; first compound 0.001 µM)	relative viability (Doxorubicin + OSI-027; first compound 0.003162 µM)	relative viability (Doxorubicin + OSI-027; first compound 0.01 µM)	relative viability (Doxorubicin + OSI-027; first compound 0.03162 µM)	relative viability (Doxorubicin + OSI-027; first compound 0.1 µM)	relative viability (Doxorubicin + Trametinib; first compound 0.001 µM)	relative viability (Doxorubicin + Trametinib; first compound 0.003162 µM)	relative viability (Doxorubicin + Trametinib; first compound 0.01 µM)	relative viability (Doxorubicin + Trametinib; first compound 0.03162 µM)	relative viability (Doxorubicin + Trametinib; first compound 0.1 µM)	relative viability (BAY61-3606 + Olaparib; first compound 0.02 µM)	relative viability (BAY61-3606 + Olaparib; first compound 0.06325 µM)	relative viability (BAY61-3606 + Olaparib; first compound 0.2 µM)	relative viability (BAY61-3606 + Olaparib; first compound 0.6325 µM)	relative viability (BAY61-3606 + Olaparib; first compound 2 µM)
EMC-BAC-2	0.793	0.824	0.748	0.674	0.692	0.5	0.353	0.379	0.239	0.197	0.807	0.633	0.576	0.297	0.36	0.493	0.52	0.48	0.493	0.457
LK-2	0.29	0.223	0.235	0.227	0.272	0.175	0.191	0.244	0.187	0.199	0.798	0.936	0.598	0.578	0.699	0.694	0.598	0.731	0.846	0.736
NCI-H2228	0.562	0.384	0.421	0.343	0.197	0.35	0.62	0.414	0.274	0.209	0.178	0.533	0.411	0.356	0.165	0.879	0.73	0.889	0.693	0.412
NCI-H460	0.887	0.882	0.273	0.0178	0.006	0.614	0.41	0.482	0.0685	0.0255	0.138	0.0856	0.0422	0.0236	0.0041	0.501	0.464	0.393	0.444	0.457
NCI-H1993	1.08	0.812	0.839	0.721	0.822	0.591	0.58	0.542	0.515	0.498	0.667		0.501	0.473	0.513	1.11	1.04	0.984	1.13	0.82
NCI-H2170	1.25	1.46	1.23	1.03	1.32	0.25	0.809	0.745	0.614	0.795	0.98	0.953	0.887	0.756	0.959	0.59	0.62	0.571	0.626	0.435
LXF-289	0.761	0.832	0.832	0.837	0.805	0.613	0.832	0.794	0.834	0.819	0.666	0.697	0.675	0.723	0.738	1.05	1.1	0.96	1.04	0.963
NCI-H596	0.984	1.13	0.916	0.91	0.933	0.578	0.801	0.799	0.647	0.721	0.733	0.896	0.661	0.659	0.671	0.74	0.75	0.722	0.925	0.544
NCI-H1299	0.952	0.981	0.939	0.874	0.49											1	0.987	0.983	0.967	0.936
ABC-1	1.09	1.28	0.804	0.294	0.209	0.431	0.494	0.424	0.306	0.32						0.908	0.686	0.76	0.494	0.711
IA-LM	0.604	0.914	0.564	0.376	0.113											1.02	0.864	0.816	0.85	0.68
NCI-H1563	0.826	0.728	0.584	0.522	0.447	0.813	0.788	0.684	0.589	0.5										
NCI-H1703	0.578	0.789	0.365	0.179	0.0887											0.626	0.383	0.448	0.541	0.276
SW 900						0.373	0.708	0.571	0.401	0.226		1.01	0.75	0.623	1.03	0.881			0.856	0.573
A549	0.774	0.634	0.419	0.0759	0.0405											0.332	0.377	0.217	0.312	0.336
NCI-H2342						0.628	0.563	0.597	0.59	0.609	0.901	0.729	0.954	0.685	0.724	0.352	0.406	0.399	0.495	0.432
NCI-H1623						0.388	0.41	0.462	0.434	0.423										
NCI-H522						0.568	0.72	0.792	0.756	0.709	0.706	0.79	0.76	0.708	0.777	0.768	0.618	0.644	0.654	0.53
NCI-H1395						0.633	0.714	0.685	0.603	0.559	0.929	0.948	0.964	0.971	0.867	0.485	0.426	0.467	0.492	0.438
EBC-1	0.222	0.189	0.179	0.177	0.164											0.712	0.769	0.701	0.748	0.614
